# Assay: Assay 13 Blood brain barrier penetration (rat brain perfusion)
# Format: in vivo
# Conditions: 50 μM infusion, 1.5 minutes
# Experimental: Assay 13. Blood Brain Barrier Penetration
# The test compounds were dissolved in DMSO and phosphate buffered saline (PBS) was added to obtain solutions at a concentration of 50 μM in PBS containing 1.25-2.5% DMSO. A trace amount of ^14C-sucrose was added to each stock infusion solution (approx 0.01 μCi/mL) to act as Blood-Brain Barrier (BBB)-impermeable marker in order to assess the integrity of the BBB during each perfusion and to estimate the volume of the residual vascular space (RVS) in samples of brain tissue (ie: the volume of fluid remaining inside the lumen of blood vessels at the end of each perfusion). […]
# After 1.5 minutes, the infusion pump automatically stopped, the cannula was withdrawn from the carotid artery and a sample of the infusion solution (1-1.5 mL) was then collected from the tip of the infusion cannula. […] The brain tissue samples from each animal were frozen at −30° C., homogenized and weighed aliquots analysed by LC-MS to give total brain concentration. […]
# Small aliquots from each brain tissue sample and the corresponding infusion solution were analysed by liquid scintillation counting to determine the level of ^14C-sucrose. The residual vascular space (RVS) in each brain tissue sample was calculated by dividing the measured concentration of sucrose in brain tissue (dpm/mg) by its concentration in the corresponding infusion solution (dpm/μL). […]
compound,measurement,value
"O=c1c2c(Cl)cc(Cl)c(O)c2ncn1C1CC1 [PBT-1061, 5,7-Dichloro-3-cyclopropyl-8-hydroxy-3H-quinazolin-4-one]",Assay 13 Rat brain perfusion (brain uptake ratio),>50%

# From patent US7692011B2, “8-hydroxy and 8-mercapto quinazolinones” (Prana Biotechnology Limited, priority 2002, dated 2010)
